In ChEMBL document CHEMBL4819147, “Design, synthesis and biological evaluation of novel molecules as potent PARP-1 inhibitors” (Bioorg Med Chem Lett, 2021):

Legend:
[1] = system: HCT-116; experiment: Antiproliferative activity against BRCA2-deficient human HCT116 cells assessed as cell growth inhibition; format: functional, cell-based
[2] = system: HCC1937; experiment: Antiproliferative activity against BRCA1-deficient human HCC1937 cells assessed as cell growth inhibition; format: functional, cell-based
[3] = biological target: T1, Poly [ADP-ribose] polymerase 1 (Homo sapiens, UniProt P09874); experiment: Inhibition of PARP1 (unknown origin)
[4] = biological target: T1, Poly [ADP-ribose] polymerase 1; experiment: Inhibition of PARP1 (unknown origin) at 10 nM relative to control
[5] = system: HCT-116; experiment: Potency index, ratio of olaparibIC50 to test compound IC50 for antiproliferative activity against BRCA2-deficient human HCT116 cells assessed as cell growth inhibition; format: functional
[6] = Octanol-water partition coefficient, logP of the compound; format: physicochemical
[7] = Half life in human liver microsomes incubated for 50 mins; format: ADME, Microsome
[8] = Intrinsic clearance in human liver microsomes incubated for 50 mins; format: ADME, Microsome

T1 sequence (P09874 whole entry): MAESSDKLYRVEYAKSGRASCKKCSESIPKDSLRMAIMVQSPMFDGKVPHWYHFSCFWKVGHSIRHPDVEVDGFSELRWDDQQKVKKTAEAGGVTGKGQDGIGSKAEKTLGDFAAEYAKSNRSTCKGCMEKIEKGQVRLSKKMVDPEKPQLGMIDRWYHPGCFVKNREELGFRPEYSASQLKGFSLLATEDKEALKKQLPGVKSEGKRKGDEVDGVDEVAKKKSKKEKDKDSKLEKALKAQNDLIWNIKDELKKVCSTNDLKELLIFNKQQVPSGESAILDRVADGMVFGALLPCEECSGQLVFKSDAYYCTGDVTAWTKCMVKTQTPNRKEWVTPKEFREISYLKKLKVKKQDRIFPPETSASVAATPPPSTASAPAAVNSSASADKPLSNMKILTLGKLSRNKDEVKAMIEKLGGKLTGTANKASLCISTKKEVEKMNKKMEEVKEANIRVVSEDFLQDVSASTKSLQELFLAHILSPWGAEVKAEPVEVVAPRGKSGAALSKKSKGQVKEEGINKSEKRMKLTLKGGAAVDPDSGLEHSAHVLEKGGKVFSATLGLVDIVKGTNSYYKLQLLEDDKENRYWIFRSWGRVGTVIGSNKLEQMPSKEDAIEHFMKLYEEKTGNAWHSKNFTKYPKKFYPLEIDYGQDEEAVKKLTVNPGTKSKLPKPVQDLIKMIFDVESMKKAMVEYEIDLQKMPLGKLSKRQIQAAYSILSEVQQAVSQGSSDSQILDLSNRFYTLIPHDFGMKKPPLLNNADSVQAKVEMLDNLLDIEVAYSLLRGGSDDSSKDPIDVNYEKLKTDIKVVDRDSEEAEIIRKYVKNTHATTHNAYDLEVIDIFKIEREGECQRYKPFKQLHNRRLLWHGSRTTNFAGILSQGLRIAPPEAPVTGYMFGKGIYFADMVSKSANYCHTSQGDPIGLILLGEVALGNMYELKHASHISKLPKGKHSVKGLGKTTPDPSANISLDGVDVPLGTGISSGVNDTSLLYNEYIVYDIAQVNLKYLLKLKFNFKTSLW

IC50 [1]	IC50 [2]	IC50 [3]	inhibition [4]	Structure (SMILES)	other results
11.9 nM	11.7 nM	0.4 nM	–	O=C(c1cc(Cc2n[nH]c(=O)c3ccccc23)ccc1F)N1CCn2c(nc3ccc(Cl)cc32)C1	–
–	–	1.7 nM	100%	CCOc1ncc(C(N)=O)c2nc(C3CCN(C(=O)c4cc(Cc5n[nH]c(=O)c6ccccc56)ccc4F)CC3)[nH]c12	–
–	–	–	40%	COc1nnc(Cc2ccc(F)c(C(=O)N3CCC(c4nc5c(C(N)=O)cncc5[nH]4)CC3)c2)c2ccccc12	–
–	–	–	47%	O=c1[nH]nc(Cc2ccc(F)c(CN3CCC(c4nc5ccccc5[nH]4)CC3)c2)c2ccccc12	–
–	–	2.4 nM	98%	COc1ncc(C(N)=O)c2nc(C3CCN(C(=O)c4cc(Cc5n[nH]c(=O)c6ccccc56)ccc4F)CC3)[nH]c12	–
6.62 nM	12.7 nM	0.51 nM	–	O=C(c1cc(Cc2n[nH]c(=O)c3ccccc23)ccc1F)N1CCn2c(nc3ccc(F)cc32)C1	Ratio IC50 [5]: 885; logP [6]: 4.83; half-life [7]: 2.89 h; CLH [8]: 40 µL/min/mg
–	–	0.63 nM	100%	O=C(c1cc(Cc2n[nH]c(=O)c3ccccc23)ccc1F)N1CCC(c2nc3ccccc3[nH]2)CC1	–
10 nM	11.6 nM	0.47 nM	–	Cc1ccc2nc3n(c2c1)CCN(C(=O)c1cc(Cc2n[nH]c(=O)c4ccccc24)ccc1F)C3	–
5860 nM	13000 nM	–	–	O=C(c1cc(Cc2n[nH]c(=O)c3ccccc23)ccc1F)N1CCN(C(=O)C2CC2)CC1 [OLAPARIB]	logP [6]: 2.79
–	–	0.49 nM	–	O=C(c1cc(Cc2n[nH]c(=O)c3ccccc23)ccc1F)N1CCn2c(nc3ccccc32)C1	–
–	–	–	42%	O=c1[nH]nc(Cc2ccc(F)c(CN3CCN(c4nc5ccccc5[nH]4)CC3)c2)c2ccccc12	–
490 nM	610 nM	0.19 nM	100%	O=C(c1cc(Cc2n[nH]c(=O)c3ccccc23)ccc1F)N1CCN(c2nc3ccccc3[nH]2)CC1	logP [6]: 4.15
161000 nM	130000 nM	0.23 nM	–	NC(=O)c1cncc2[nH]c(C3CCN(C(=O)c4cc(Cc5n[nH]c(=O)c6ccccc56)ccc4F)CC3)nc12	–
